Reference: patent publication US5234944A (priority 1986, dated 1993)
Where two headings read alike, the source gives them in different places.

Legend:
[1] = Hypotensive activity on the anaesthetized rat; type: in vivo, rat (Sprague Dawley); details: injected into jugular vein
[2] = target: T1, opiated receptor K (Cavia porcellus, UniProt P41144); assay: Liaison with the opiated receptor K in vitro (displacement of 3H ethylketocyclazocine); type: binding; details: guinea-pig cerebella membranes, 3H ethylketocyclazocine 1 nM, Tris pH 7.7, 25° C., 40 minutes
T1 construct: Membrane residue prepared from the cerebella of guinea-pigs; from tissue; host or cells: guinea-pig cerebellum membranes

[3] = type: in vivo, rat; details: intravenous, aconitine 5 minutes after
[4] = Measurement of the diuretic activity; type: in vivo, rat (Sprague Dawley); details: oral, t1h-t5h
Protocol: 4) Measurement of the diuretic activity
Male rats of Sprague Dawley strain weighing 180 to 200 g were not fed for 17 hours before the test, but received water ad libitum. Groups of 8 animals were set up for each dose tested and the rats received the product under test or its vehicle orally. The urinary volume was measured every hour for the 5 hours following the administration of the product. At the end of this period, the urines were collected and the activity of the product was expressed as a percentage of variation calculated on the urinary volume corresponding to the period t1h -t5h.

[5] = read-out: 50% inhibiting concentration (IC50)
[6] = 50% inhibiting concentration (IC50)

T1 sequence (P41144 whole entry): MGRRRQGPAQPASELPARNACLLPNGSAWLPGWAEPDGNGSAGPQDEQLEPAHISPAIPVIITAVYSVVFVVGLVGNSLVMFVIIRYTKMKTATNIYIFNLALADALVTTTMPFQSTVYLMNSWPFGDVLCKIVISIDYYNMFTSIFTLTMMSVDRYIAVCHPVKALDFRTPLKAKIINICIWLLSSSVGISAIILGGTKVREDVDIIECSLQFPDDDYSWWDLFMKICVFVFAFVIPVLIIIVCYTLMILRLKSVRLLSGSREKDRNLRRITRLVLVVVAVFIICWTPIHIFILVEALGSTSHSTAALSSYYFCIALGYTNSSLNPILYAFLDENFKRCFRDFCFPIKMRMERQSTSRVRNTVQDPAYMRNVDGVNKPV

| SMILES | IC50 [2, 6] | variation of arterial pressure, 5 min. after administration ([1]; dose 1 mg/kg) | variation of arterial pressure, 30 min. after administration ([1]; dose 1 mg/kg) | further results |
| --- | --- | --- | --- | --- |
| CN(C(=O)Cc1ccc(Cl)c(Cl)c1)[C@H]1[C@H](N2CCCC2)c2ccccc2C12CCOCC2 (relative stereo) [Example 4, [trans (±)]3,4-dichloro-N-[2,2',3,3',5',6'-hexahydro-3-(1-pyrrolidinyl)-spiro (1H-inden-1-,4'-(4H)-pyran]-2-yl]-N-methyl-benzene-acetamide] | – | – | – | variation of arterial pressure, 5 min. after administration ([1]; dose 10 mg/kg): -26%; variation of arterial pressure, 30 min. after administration ([1]; dose 10 mg/kg): -14% |
| CC(C(=O)N(C)[C@@H]1c2ccccc2C[C@H]1N1CCCC1)c1ccc(Cl)c(Cl)c1 (mixture of isomers) [Example 22, [Trans (±)]3,4-dichloro-N-[2,3-dihydro-2-(1-pyrrolidinyl)-1H-inden-1-yl]-N-α-dimethyl-benzene-acetamide] | – | – | – | IC50 [2, 5]: 7.1 nM |
| CN(C)[C@@H]1Cc2ccccc2[C@H]1N(C)C(=O)Cc1ccc(Cl)c(Cl)c1 (relative stereo) [Example 25, [Trans (±)]3,4-dichloro-N-[2,3-dihydro-2-(dimethylamino)-1H-inden-1-yl]-N-methyl-benzene-acetamide] | 2.2 nM | – | – | – |
| CN(C(=O)Cc1ccc(C(F)(F)F)cc1)[C@@H]1c2ccccc2C[C@H]1N1CCCC1 (relative stereo) [Example 5, [Trans (±)]N-[2,3-dihydro-2-(1-pyrrolidinyl)-1H-inden-1-yl]-N-methyl 4-(trifluoromethyl)-benzene-acetamide] | 3 nM | -20% | -20% | variation of arterial pressure, 5 min. after administration ([1]; dose 10 mg/kg): -25%; variation of arterial pressure, 30 min. after administration ([1]; dose 10 mg/kg): -10%; percentage of extension of time of appearance of disturbances of the cardiac rhythm ([3]; dose 10 mg/kg): +15.6% |
| CN(C(=O)Cc1ccc([N+](=O)[O-])cc1)[C@@H]1c2ccccc2C[C@H]1N1CCCC1 (relative stereo) [Example 8, [Trans (±)]N-[2,3-dihydro-2-(1-pyrrolidinyl)-1H-inden-1-yl]-N-methyl-4-nitro-benzene-acetamide] | 7.1 nM | -25% | -27% | percentage of variation of the urinary volume ([4]; dose 2.5 mg/kg): +124%; percentage of variation of the urinary volume ([4]; dose 5 mg/kg): +130%; percentage of extension of time of appearance of disturbances of the cardiac rhythm ([3]; dose 5 mg/kg): +23% |
| CN(C(=O)COc1ccc(Cl)c(Cl)c1)[C@@H]1c2ccccc2C[C@H]1N1CCCC1 (relative stereo) [Example 14, [trans (±)]2-(3,4-dichlorophenoxy)-N-[2,3-dihydro-2-(1-pyrrolidinyl)-1H-inden-1-yl]-N-methyl-acetamide] | – | -22% | -26% | percentage of variation of the urinary volume ([4]; dose 5 mg/kg): +68%; IC50 [2, 5]: 3.8 nM |
| CN(C(=O)Cc1cccc(C(F)(F)F)c1)[C@@H]1c2ccccc2C[C@H]1N1CCCC1 (relative stereo) [Example 6, [Trans (±)]N-[2,3-dihydro-2-(1-pyrrolidinyl)-1H-inden-1-yl]-N-methyl-3-(trifluoromethyl)-benzene-acetamide] | 7.5 nM | – | – | – |
| CN(C(=O)Cc1ccc(Cl)c(Cl)c1)[C@H]1[C@H](N2CCCC2)c2ccccc2C1(C)C (relative stereo) [Example 29, [Trans (±)]3,4-dichloro-N-[2,3-dihydro-1,1-dimethyl-3-(1-pyrrolidinyl)-1H-inden-2-yl]-N-methyl-benzene-acetamide] | 5.6 nM | – | – | – |
| CN(C(=O)Cc1ccc([N+](=O)[O-])cc1)[C@@H]1c2ccccc2C[C@H]1N1CCCC1 (relative stereo) [Example 16, [Trans (±)]N-[2,3-dihydro-2-(1-pyrrolidinyl)-1H-inden-1-yl]-N-methyl-4-nitro-benzene-acetamide (isomer A)] | 5 nM | – | – | – |
